≈ marks a conversion by molar mass, not a printed value. Entries after “also recorded” stand apart in the source; their conditions may differ.
Tests used:
B16F10 melanoma [1] = assay: In vivo covalent binding of (14C)-NACAP to tissues of melanoma-bearing mice; details: female C57BL/6J mice, single i.p. injection, 48 hr, mean + S.D. (n = 3)
Description: In vivo covalent binding of (^14 C)-N-acetyl-4-S-CAP was investigated in mice. Female C57BL/6J mice received a single intraperitoneal injection of 2.0 mmol/kg (^14 C)-N-acetyl-4-S-CAP compound. The animals were killed 48 hours later. The tissues were removed and the covalent binding was determined as follows.
Five different tissues were examined for covalent binding of radioactively labelled N-acetyl-4-S-CAP intermediate(s). The maximum binding of N-acetyl-4-S-CAP was detected in the s.c. melanoma tumor and melanoma colony-bearing lung tissues. […]
^a Female C57BL/6J mice received a single intraperitoneal injection o
2.0 nmol/kg (^14 C)NACAP. The animals were killed 48 hr later, the
tissues were removed, and the covalent binding was determined as describe
^b The data are presented as the means + S.D. (n = 3).

B16F10 melanoma [2] = assay: In vivo biodistribution by whole-body autoradiography; set-up: species or system mouse
Description: 48 hours after injection the animal was killed, frozen and prepared for sectioning. The 20-μm sections were freeze-dried and exposed to x-ray film for whole-body autoradiography.
The s.c. melanoma tumor and the lung with melanoma colonies were the only organs displaying a significant accumulation of the radioactivity.

melanoma tissue = assay: Distribution of 4-S-CAP in radioimaging or radiochemotherapy; details: in vivo
Source text: When the compounds of the formula (I) are used in radiochemotherapy they may be combined with suitable pharmaceutical excipients and carriers wherein the radioactive selected compounds are present in a biologically effective amount in the carriers. Suitable biologically, compatible carriers may be solutions when injected by either the IP or SC route. Suitable biologically, compatible carriers for injection include physiologically normal saline and other types of readily injectable solutions which are well understood by those skilled in the art and readily available. […] For purposes of injection, the concentration of the radiolabelled compound in the injectable solution is normally in the range of 200 to 1200 mg per kg of body weight where the preferred dosage is in the range of 300 mg to 500 mg per kg of body weight. In the following examples, further information is provided as to the amount of compounds injected for purposes of radioimaging.

melanoma = details: mice in vivo; cited from earlier work
epidermal melanocytes = details: topical application, cited from earlier work
follicular melanocytes = details: cited from earlier work
monoamineoxidase (MAO) = details: cited from earlier work; for General (non-specific) cytotoxicity: via aldehyde metabolite formed by plasma MAO
[3] = Determination of NAP-TEA and N-Acetyl-4-S-CAP in plasma after i.p. injection; assay type: in vivo, C57BL/6J Black Mouse; details: NAP-TEA 300 mg/kg i.p., plasma at 5 and 20 minutes
Description: A C57BL/6J Black Mouse was injected at 300 mg/kg body weight by i.p. administration of NAP-TEA. 100 μl of plasma was extracted from the mouse after 5 minutes of injection and after 20 minutes of injection. The plasma samples were treated in accordance with the procedure of Example 2. The plasma samples were passed through a Sep-Pak C18 cartridge in either 5% methanol:water to produce eluent 1 or 50% methanol/water to produce eluent 2. Eluent 2 had the aqueous methanol removed therefrom to provide a residue. The residue was redissolved in methanol/0.1% acetic acid and water in a ratio of 50:50 and subjected to HPLC for both the 5 minute and 20 minute plasma samples. […] The concentration of N-Acetyl-4-S-CAP in the 5 minute extracted sample being considerably greater than in the 20 minute extracted sample to indicate that in vivo NAP-TEA is deacylated to N-Acetyl-4-S-CAP which in turn is then taken up by the mouse melanocytes.

HeLa = assay: In vitro cytotoxicity, MTT assay, HeLa; assay type: cell-based; details: Homo sapiens, 120 h, 5 days
Description: (§1) MTT assay in accordance with the standard procedure
(§2) MTT solution (Sigma catalog No. M2128) was dissolved in PBS at 1 mg/ml and filtered to sterilize the solution. The solution was stored in the dark at 4° C. until used. The growing cells were harvested, counted and inoculated into 96 well microtiter plates (1-2×10^3 cells/well).After 24 h, drugs were applied to culture wells, and the cultures were incubated for 5 days at 37° C. At this time, 50 μl of MTT solution was added to microculture wells. After 4 h incubation at 37° C., supernatant was removed from each well. 150 μl of DMSO was added to solubilized the MTT-formazan product. After mixing gently, absorbance at 540 nm was measured with ELISA plate spectrophotometer.

SK-MEL-23 = assay: In vitro cytotoxicity, MTT assay, SK-MEL-23; assay type: cell-based; details: 120 h; SK-MEL-23, MTT, 5 days
Description: as §1, §2

UT amelanotic melanoma = assay: In vitro cytotoxicity, MTT assay, UT amelanotic melanoma; assay type: cell-based; details: 120 h, 5 days
Description: as §1, §2

mushroom tyrosinase = assay: Utilization with mushroom tyrosinase (remaining compound by HPLC); assay type: biochemical; details: 11 units tyrosinase, pH 6.8, 37° C.
Description: A reaction mixture consisting of NAP-TEA (500 μmol) and of mushroom tyrosinase (11 units) in 1.0 ml of 0.05 M sodium phosphate buffer (pH 6.8) was incubated at 37° C. in a water bath. The reaction was stopped periodically by cooling with ice. Aliquots removed at set time intervals were rapidly cooled to 0° C. in an ice bath and the remaining NAP-TEA was measured using HPLC. HPLC instrument and conditions Water 600 E liquid chromatograph system Conditions: μBondapak C18, Radial-Pak Cartridge (Waters) Mobile phase; 70% MeOH/H2 O, 1 ml/min Detector; Waters Model 441 UV absorbance detector Detection; Wavelength 254 nm

tyrosinase = details: cited from earlier work
[4] = O-deacylation of NAP-TEA in mouse plasma in vitro; assay type: in vitro ADME; details: 10 μg in 100 μl mouse plasma, shaken one-half minute, HPLC
Description: NAP-TEA was introduced to mouse plasma to determine by in vitro experimentation the extent to which NAP-TEA is deacetylated to form N-Acetyl-4-S-CAP. The procedure was as follows. Into 100 μl of mouse plasma, 10 μg of NAP-TEA was introduced. The mixture was shook for one-half of a minute and then passed through a Sep-Pak C18 cartridge in either 7 ml of 5% methanol/water to form eluent 1 or in 4 ml of 50% methanol/water to form eluent 2. Both eluents 1 and eluents 2 were collected. Aqueous methanol was removed from eluent 2 to provide a residue which was subjected to HPLC under the following conditions. […] The residue was mixed with methanol:water at 50:50 with a flow rate through the radiograph at 1 ml/min. The detector was a Water Associates Model 441 with detection by ultraviolet at 250 nm.

[5] = test system: follicular melanocytes (black hair); assay: Melanocytotoxicity in vivo (depigmentation of black hair); details: 300 mg/kg i.p. daily for 14 days, plucked C57BL/6J black mice
Description: Hairs were plucked manually from the back of 6-8 week old C57BL/6J black mice (4 mice). Starting on day 2, daily for 14 days NAP-TEA was injected i.p. The dose was 300 mg/kg body weight.

hair follicles = assay: Depigmenting effect on newborn black mice; assay type: in vivo, C57BL/6J black mice; details: single i.p. dose 300 mg/kg, 3 day old mice
Description: Six newborn (3 day old) C57BL/6J black mice were injected i.p. with a single dose of 0.1 mL of NAP-TEA solution (300 mg/kg body weight).

functioning melanocytes = assay: In vivo melanocytotoxicity in pig, topical application, Dopa-positive melanocyte count; set-up: species or system Yucatan pig; details: topical twice a day for 8 weeks
Description: Solutions of 15% NAP-TEA in DMSO(w/v) and of 15% NAP-TEA in 60% EtOH(w/v) were prepared for topical application to a Yucatan pig. NAP-TEA was applied to the back skin of the pig twice a day for 8 weeks. After 8 weeks, punch biopsy was performed from the application area and from normal skin. Specimens obtained were kept in 2N NaBr solution for 3 hours followed by separation of the epidermis from dermis. Specimens of epidermis were incubated for 3 hours in phosphate buffer (pH 7.4) containing L-Dopa. The specimens were fixed in 10% neutral formalin solution and then washed twice in PBS. Finally, the specimens were mounted in glycerol gel. The numbers of Dopa-positive melanocytes in 9 adjacent 1 mm^2 fields from each sample were counted.

[6] = set-up: species or system animals; details: in vivo
Description: Experimental tests on animals indicate per single dose toxicity levels in the range of 1,400 mg/kg of body weight for the preferred compound of formula (II), NAP-TEA.

CC(=O)NCCS[14c]1[14cH][14cH][14c](O)[14cH][14cH]1 [(14C)-NACAP, N-acetyl-4-S-cysteaminyl (U-^14 C) phenol]
Convalent Binding, B16F10 melanoma s.c. tumor (B16F10 melanoma [1]): 0.521 + 0.076 nmol covalently bound/kg of protein
Convalent Binding, kidney (B16F10 melanoma [1]): 0.008 + 0.001 nmol covalently bound/kg of protein
Convalent Binding, liver (B16F10 melanoma [1]): 0.013 + 0.003 nmol covalently bound/kg of protein
Convalent Binding, lungs with B16F10 melanoma colonies (B16F10 melanoma [1]): 0.330 + 0.113 nmol covalently bound/kg of protein
Convalent Binding, lungs without B16F10 melanoma colonies (B16F10 melanoma [1]): 0.010 + 0.001 nmol covalently bound/kg of protein
Radioactivity in normal organs by whole-body autoradiography (B16F10 melanoma [2]; 48 hours after i.p. injection, mouse): not detectable in any normal organs except the lumen of the large intestine
Radioactivity in melanoma-bearing organs by whole-body autoradiography (B16F10 melanoma [2]; mouse with s.c. B16F10 tumor and B16F10 lung colonies, single i.p. injection 5.0 μCi, 48 hours): showed radioactivity in infected organs

NCCSc1ccc(O)cc1 [Compound 4-S-CAP, 4-S-cysteaminylphenol]
Tissue accumulation in radioimaging or radiochemotherapy (melanoma tissue): collects in the eye as well as in the melanoma tissue
Antimelanoma effect (lifespan of melanoma-bearing mice, inhibition of melanoma growth) (melanoma): potent agent in prolonging the lifespan of melanoma-bearing mice
Inflammatory changes of the skin (epidermal melanocytes; guinea pigs): prominent
Depigmentation of black guinea pig skin (epidermal melanocytes): demonstrated depigmenting properties
Effect on albino follicles (follicular melanocytes; albino follicles): no effect on the albino follicles
Cytotoxicity on black hair follicles (follicular melanocytes; black follicles): demonstrated cytotoxicity in the depigmentation of black hair follicles
Substrate for monoamineoxidase (MAO) (monoamineoxidase (MAO); plasma): substrate for monoamineoxidase (MAO)
General (non-specific) cytotoxicity (monoamineoxidase (MAO)): high toxicity; also recorded: some general cytotoxicity

NC(CSc1ccc(O)cc1)C(=O)O (stereo not drawn) [Compound 4-S-CP, 4-S-cysteinylphenol]
Antimelanoma effect (lifespan of melanoma-bearing mice, inhibition of melanoma growth) (melanoma): some inhibition of melanoma growth

CC(=O)NCCSc1ccc(O)cc1 [N-Acetyl-4-S-CAP, N-acetyl-4-S-cysteaminylphenol]
Compound detected in plasma by HPLC after NAP-TEA injection [3]: evidence of N-Acetyl-4-S-CAP
IC50 (HeLa): 75 µg/mL (≈ 355 µM)
IC50 (SK-MEL-23): 25 µg/mL (≈ 118 µM)
IC50 (UT amelanotic melanoma): 12 µg/mL (≈ 56.8 µM)
Substrate of mushroom tyrosinase (concentration remaining in the reaction mixture) (mushroom tyrosinase): dropped off rapidly over 25 minutes to almost zero amount after 50 minutes
Antimelanoma effect (lifespan of melanoma-bearing mice, inhibition of melanoma growth) (melanoma): potent antimelanoma properties
General (non-specific) cytotoxicity (monoamineoxidase (MAO)): absence of such cytotoxicity
Substrate of tyrosinase (tyrosinase): superior substrate

CC(=O)NCCSc1ccc(OC(C)=O)cc1 [NAP-TEA, N-{2-((4-Acetoxyphenyl)-thio)ethyl}acetamide]
O-deacylation to N-Acetyl-4-S-CAP in mouse plasma [4]: readily deacylated by the mouse plasma
Compound detected in plasma by HPLC after NAP-TEA injection [3]: no evidence of NAP-TEA
IC50 (HeLa): 77 µg/mL (≈ 304 µM)
IC50 (SK-MEL-23): 31 µg/mL (≈ 122 µM)
IC50 (UT amelanotic melanoma): 14 µg/mL (≈ 55.3 µM)
Substrate of mushroom tyrosinase (concentration remaining in the reaction mixture) (mushroom tyrosinase): not a substrate of mushroom tyrosinase
Depigmentation of replacement hair [5]: mice were depigmented with the new replacement hair being almost pure white
Depigmentation of hair follicles in newborn mice (hair follicles): depigmented in all hair follicles with the growing hair being light grey
Number of functioning melanocytes (Average of 9 fields) (functioning melanocytes; 15% NAP-TEA in 60% EtOH): 74 ± 25 /mm^2
Number of functioning melanocytes (Average of 9 fields) (functioning melanocytes; 15% NAP-TEA in DMSO): 32 ± 14 /mm^2
per single dose toxicity level [6]: ~1,400 mg/kg of body weight

COC(=O)C(N)CSc1ccc(O)cc1 (stereo not drawn) [methyl ester of 4-S-CP]
Antimelanoma effect (lifespan of melanoma-bearing mice, inhibition of melanoma growth) (melanoma): some inhibition of melanoma growth

Source: US5925332A, “Radioimaging and radiochemotherapy phenolic thioether amines and acyl derivatives thereof for use in diagnosing and treating pigmentation disorders” (The Governors of the University of Alberta, priority 1992, dated 1999)
